# Values of other authors in US10668130B2, “Formulation for targeting cancer in humans and canines using chlorotoxin” (priority 2017, dated 2020).
# Assays:
# [1] = test system: Ca2+-activated Cl— channels; settings: sub-micromolar concentrations
# [2] = test system: volume-regulated Cl— channels; settings: sub-micromolar concentrations
# [3] = test system: outwardly rectifying Cl— channels; settings: planar lipid bilayers
# CFTR Cl— channels = CFTR Cl— channels (Homo sapiens, UniProt P13569); settings: sub-micromolar concentrations
# Sequence of CFTR Cl— channels (P13569 whole entry): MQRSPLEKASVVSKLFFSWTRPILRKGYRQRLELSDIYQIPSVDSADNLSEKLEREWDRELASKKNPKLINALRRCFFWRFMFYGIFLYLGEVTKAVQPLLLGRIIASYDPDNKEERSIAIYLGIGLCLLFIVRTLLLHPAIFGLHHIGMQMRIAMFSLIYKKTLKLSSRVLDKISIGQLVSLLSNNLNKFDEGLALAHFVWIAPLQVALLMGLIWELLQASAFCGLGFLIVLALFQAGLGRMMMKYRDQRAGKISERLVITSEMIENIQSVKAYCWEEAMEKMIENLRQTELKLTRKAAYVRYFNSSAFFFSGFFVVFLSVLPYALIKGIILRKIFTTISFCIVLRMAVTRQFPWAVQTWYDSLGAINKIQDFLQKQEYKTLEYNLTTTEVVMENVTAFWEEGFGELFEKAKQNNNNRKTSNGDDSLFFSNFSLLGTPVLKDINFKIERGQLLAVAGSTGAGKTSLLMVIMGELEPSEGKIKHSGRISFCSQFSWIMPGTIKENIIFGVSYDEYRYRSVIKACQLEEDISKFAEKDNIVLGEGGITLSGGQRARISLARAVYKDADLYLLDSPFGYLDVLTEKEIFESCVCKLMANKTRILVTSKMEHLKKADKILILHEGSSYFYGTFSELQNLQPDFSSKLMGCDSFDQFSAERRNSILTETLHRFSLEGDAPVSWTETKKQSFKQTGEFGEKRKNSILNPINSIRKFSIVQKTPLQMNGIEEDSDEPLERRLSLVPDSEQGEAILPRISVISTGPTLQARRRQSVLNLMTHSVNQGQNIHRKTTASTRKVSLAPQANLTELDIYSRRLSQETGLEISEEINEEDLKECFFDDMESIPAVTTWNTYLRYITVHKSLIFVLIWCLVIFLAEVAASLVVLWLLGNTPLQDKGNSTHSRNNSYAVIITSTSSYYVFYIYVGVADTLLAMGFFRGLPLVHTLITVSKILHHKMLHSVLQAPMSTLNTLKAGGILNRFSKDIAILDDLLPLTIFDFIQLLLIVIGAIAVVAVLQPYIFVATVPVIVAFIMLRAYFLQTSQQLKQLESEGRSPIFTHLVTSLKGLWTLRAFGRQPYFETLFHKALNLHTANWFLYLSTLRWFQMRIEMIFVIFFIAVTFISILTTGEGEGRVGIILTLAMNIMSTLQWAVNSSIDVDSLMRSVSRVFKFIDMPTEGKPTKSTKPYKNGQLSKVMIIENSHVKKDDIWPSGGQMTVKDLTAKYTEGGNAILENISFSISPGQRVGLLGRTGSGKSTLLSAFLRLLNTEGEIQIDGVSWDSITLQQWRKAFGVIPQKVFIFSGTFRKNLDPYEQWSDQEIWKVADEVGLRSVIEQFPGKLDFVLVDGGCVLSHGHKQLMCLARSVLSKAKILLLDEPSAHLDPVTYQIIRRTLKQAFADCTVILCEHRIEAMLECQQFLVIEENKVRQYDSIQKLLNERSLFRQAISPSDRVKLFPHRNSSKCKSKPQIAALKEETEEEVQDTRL
substance,measurement,setting,value
chlorotoxin,effect on Ca2+-activated Cl— channels,[1],without effect
same,effect on volume-regulated Cl— channels,[2],without effect
same,effect on outwardly rectifying Cl— channels,[3],inhibited
same,effect on CFTR Cl— channels,CFTR Cl— channels,without effect
